Source: patent US20210300900A1, “OGA INHIBITOR COMPOUNDS” (Janssen Pharmaceutica NV, priority 2018, published 2021)
Structures can show the parent of a compound that is named as a salt.

Experiments:
[1] = target: T1, recombinant human Meningioma Expressed Antigen 5 (MGEA5), also referred to as O-GcNAcase (OGA) (Homo sapiens, UniProt O60502); test: OGA biochemical assay (inhibition of FM-GlcNAc hydrolysis, fluorescence); conditions: FM-GlcNAc substrate; for Emax: read-out: Enzymatic Emax (%); for IC50: read-out: Enzymatic hOGA, pIC50 (converted)
T1 construct: Full length OGA enzyme was purchased at OnGene (cat #TP322411); purchased OnGene (so in the source)
T1 sequence (O60502 1-916): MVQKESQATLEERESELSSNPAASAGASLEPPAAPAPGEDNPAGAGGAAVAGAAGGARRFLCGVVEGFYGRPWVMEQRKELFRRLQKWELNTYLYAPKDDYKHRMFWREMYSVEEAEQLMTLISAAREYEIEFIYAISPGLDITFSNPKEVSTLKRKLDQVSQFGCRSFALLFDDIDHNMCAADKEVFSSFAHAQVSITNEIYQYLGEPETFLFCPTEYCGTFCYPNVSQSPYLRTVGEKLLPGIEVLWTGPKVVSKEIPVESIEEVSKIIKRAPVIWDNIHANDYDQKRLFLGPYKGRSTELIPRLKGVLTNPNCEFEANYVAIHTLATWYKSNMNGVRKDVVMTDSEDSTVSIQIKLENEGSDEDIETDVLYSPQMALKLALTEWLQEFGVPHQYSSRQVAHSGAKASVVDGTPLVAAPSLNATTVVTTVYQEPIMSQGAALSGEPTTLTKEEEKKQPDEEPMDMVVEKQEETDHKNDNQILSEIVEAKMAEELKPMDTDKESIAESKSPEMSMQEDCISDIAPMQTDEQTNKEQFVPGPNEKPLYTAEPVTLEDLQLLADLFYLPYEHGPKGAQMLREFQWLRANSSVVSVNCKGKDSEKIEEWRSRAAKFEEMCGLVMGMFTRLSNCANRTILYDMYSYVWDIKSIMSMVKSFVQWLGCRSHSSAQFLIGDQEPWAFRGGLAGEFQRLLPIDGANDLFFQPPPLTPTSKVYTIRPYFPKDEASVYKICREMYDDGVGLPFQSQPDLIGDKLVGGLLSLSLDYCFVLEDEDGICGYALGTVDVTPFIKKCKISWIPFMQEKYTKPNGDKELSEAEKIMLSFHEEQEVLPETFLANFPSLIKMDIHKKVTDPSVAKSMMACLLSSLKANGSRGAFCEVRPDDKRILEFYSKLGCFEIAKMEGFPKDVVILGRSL
Method in brief: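 Full-length recombinant human OGA (2 nM) pre-incubated 60 min with compound, then FM-GlcNAc (100 uM final) added in 200 mM citrate/phosphate pH 7.2 with 0.005% Tween-20; 6 h at room temperature, stopped with pH 11.0 carbonate. Fluorescein read at ex 485/em 538 nm; IC50 and Hill coefficient from curve fit against no-inhibitor and saturating-standard controls.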

OGA = target: T2, OGA (Homo sapiens, UniProt O60502); test: OGA cellular assay (ICC detection of O-GlcNAcylated proteins in HEK293 cells inducible for P301L mutant human Tau); assay type: cell-based; conditions: 6 hours incubation; for Emax: HEK293, HEK293 cells inducible for P301L mutant human Tau; for Emax / Cellular Emax (%): maximum = Thiamet G 200 uM; for EC50 / Cellular hOGA; pEC50 / Cellular Emax (%): HEK293 cells inducible for P301L mutant human Tau; for EC50: read-out: Cellular hOGA, pEC50 (converted)
T2 construct: endogenous in cells; host or cells: HEK293 cells inducible for P301L mutant human Tau (isoform 2N4R)
T2 sequence (O60502 1-916): T1 sequence (O60502 1-916)
Method: HEK293 cells inducible for P301L mutant human Tau (isoform 2N4R) were established at Janssen. Thiamet-G was used for both plate validation (high control) and as reference compound (reference EC50 assay validation). OGA inhibition is evaluated through the immunocytochemical (ICC) detection of O-GlcNAcylated proteins by the use of a monoclonal antibody (CTD110.6; Cell Signaling, #9875) detecting O-GlcNAcylated residues as previously described (Dorfmueller et al. 2010 Chemistry & biology, 17:1250). Inhibition of OGA will result in an increase of O-GlcNAcylated protein levels resulting in an increased signal in the experiment. Cell nuclei are stained with Hoechst to give a cell culture quality control and a rough estimate of immediate compounds toxicity, if any. ICC pictures are imaged with a Perkin Elmer Opera Phenix plate microscope and quantified with the provided software Perkin Elmer Harmony 4.1.
Cells were propagated in DMEM high Glucose (Sigma, #D5796) following standard procedures. 2 days before the cell assay cells are split, counted and seeded in Poly-D-Lysine (PDL) coated 96-wells (Greiner, #655946) plate at a cell density of 12,000 cells per cm^2 (4,000 cells per well) in 100 μl of Assay Medium (Low Glucose medium is used to reduce basal levels of GlcNAcylation) (Park et al. 2014 The Journal of biological chemistry 289:13519). At the day of compound test medium from assay plates was removed and replenished with 90 μl of fresh Assay Medium. 10 μl of compounds at a 10 fold final concentration were added to the wells. Plates were centrifuged shortly before incubation in the cell incubator for 6 hours. DMSO concentration was set to 0.2%. Medium is discarded by applying vacuum. For staining of cells medium was removed and cells washed once with 100 μl D-PBS (Sigma, #D8537). From next step onwards unless other stated assay volume was always 50 μl and incubation was performed without agitation and at room temperature. Cells were fixed in 50 μl of a 4% paraformaldehyde (PFA, Alpha aesar, #043368) PBS solution for 15 minutes at room temperature. […] Before analysis samples were washed 2 times manually for 5 minutes in ICC base buffer.
Imaging is performed using Perkin Elmer Phenix Opera using a water 20×objective and recording 9 fields per well. Intensity readout at 488 nm is used as a measure of O-GlcNAcylation level of total proteins in wells. To assess potential toxicity of compounds nuclei were counted using the Hoechst staining. IC50-values are calculated using parametric non-linear regression model fitting. As a maximum inhibition Thiamet G at a 200 uM concentration is present on each plate. In addition, a concentration response of Thiamet G is calculated on each plate.

Structure (SMILES)	melting point [°C]	Emax [1] [%]	IC50 [1] [nM]	Emax (OGA) [%]	EC50 (OGA) [nM]	other results
COc1cc(NC[C@H]2CCCN(C(C)c3nc(OC)ccc3F)C2)cc(C)n1 (mixture of isomers) (as salt: HCl) [Product 90]	151.3	–	–	–	–	–
COc1ccc(F)c(C(C)N2CCCC(CNc3cc(C)nc(C(F)(F)F)c3)C2)n1 (stereo not drawn) (as salt: HCl) [Product 96]	211.6	–	–	–	–	–
CCOc1cc(CN2CCC[C@H](Cc3cc(C)nc(C)c3)C2)n[nH]1 [Product 14]	112.89	81	2750	–	–	–
CC(=O)Nc1ncc(CN2CCC[C@H](Cc3cc(C)nc(C)c3)C2)nc1C.Cl [Product 158]	158.1	13	> 10000	–	–	–
CC(=O)Nc1cc(CN2CCC[C@H](Cc3cc(C)nc(C)c3)C2)cnn1 (as salt: HCl) [Product 62]	206.5	–	–	–	–	–
CC(=O)Nc1cc(C(C)N2CCCC(CNc3cc(C)nc(C(F)(F)F)c3)C2)[nH]n1 (stereo not drawn) [Product 91]	261.7	104	129	–	–	–
COc1ccc(F)c([C@H](C)N2CCC[C@H](Cc3cc(C)nc(C)c3)C2)n1 [Product 42]	–	–	–	–	–	Enzymatic Emax (%) [1]: 103%; Enzymatic hOGA; pIC50 [1]: 7.88; Cellular hOGA; pEC50 (OGA): 7.03; Cellular Emax (%) (OGA): 100%
CC(=O)Nc1cc(CN2CCCC(COc3cc(C)nc(C)c3)C2)n[nH]1 (stereo not drawn) (as salt: hydrochloric acid salt) [Product 119]	192.2	–	–	–	–	–
CC(=O)Nc1cc(CN2CCC[C@H](Cc3cc(C)nc(C)c3)C2)nn1C [Product 6]	–	100	174	11	> 1000	–
COc1cc(C(C)N2CC[C@H](Cc3cc(C)nc(OC)c3)C2)c(F)cn1 (mixture of isomers) [Product 130]	–	95	871	4	> 1000	–
CCOc1cc([C@H](C)N2CCC[C@H](Cc3cc(C)nc(C)c3)C2)n[nH]1 [Product 16]	–	–	–	–	–	Enzymatic Emax (%) [1]: 101%; Enzymatic hOGA; pIC50 [1]: 7.45; Cellular hOGA; pEC50 (OGA): 6.05; Cellular Emax (%) (OGA): 31%
CC(=O)Nc1cc(C(C)N2CCCC(Oc3ncc(C)nc3C)C2)n[nH]1 (stereo not drawn) [Product 117]	–	102	64.6	30	> 1000	–
COc1ccc(F)c(C(C)N2CCCC(CNc3cc(C)nc(C)c3)C2)n1 (stereo not drawn) [Product 86]	–	102	17	94	56.2	–
CC(=O)Nc1cc(C(C)N2CC[C@H](Cc3cc(C)nc(C(F)(F)F)c3)C2)n[nH]1 (mixture of isomers) [Product 122]	–	92	1000	17	> 1000	–
COc1ccc(F)c(C(C)N2CCCC(CNc3cc(C)nc(C)c3)C2)n1 (stereo not drawn) (as salt: HCl) [Product 86]	206.8	–	–	–	–	–
CC(=O)Nc1cc(C(C)N2CCCC(c3cc(C)nc(C)c3)C2)n[nH]1 (stereo not drawn) [Product 72]	184.68	97	457	31	> 1000	–
COc1ccc(F)c(C(C)N2CCCC(Oc3cc(C)nc(C)c3)C2)n1 (stereo not drawn) [Product 137]	–	102	107	4	> 1000	–

Now from value to compound, other results behind:

melting point [°C]	Emax [1] [%]	IC50 [1] [nM]	Emax (OGA) [%]	EC50 (OGA) [nM]	Structure (SMILES)	other results
251.2	–	–	–	–	CNC(=O)c1cncc(C(C)N2CCC[C@H](Cc3cc(C)nc(C)c3)C2)c1 (mixture of isomers) (as salt: HCl) [Product 40]	–
186.5	–	–	–	–	CC(=O)Nc1cncc(CN2CCC[C@H](Cc3cc(C)nc(C)c3)C2)c1 (as salt: HCl) [Product 34]	–
138	–	–	–	–	CC(=O)Nc1ccnc(C(C)N2CCC[C@H](Cc3cc(C)nc(C)c3)C2)c1 (stereo partly drawn) (as salt: HCl) [Product 32]	–
138	–	–	–	–	CCOc1cncc(C(C)N2CCC[C@H](Cc3cc(C)nc(C)c3)C2)c1 (mixture of isomers) (as salt: HCl) [Product 44]	–
133	–	–	–	–	CC(=O)Nc1ccnc(CN2CCC[C@H](Cc3cc(C)nc(C)c3)C2)c1 (as salt: HCl) [Product 31]	–
245	–	–	–	–	CC(=O)Nc1cc(C(C)N2CCCC(CNc3cc(C)nc(C)c3)C2)[nH]n1 (stereo not drawn) (as salt: HCl) [Product 83]	–
188.1	–	–	–	–	CCC(=O)Nc1cncc(C(C)N2CCC[C@H](Cc3cc(C)nc(C)c3)C2)c1 (mixture of isomers) (as salt: HCl) [Product 38]	–
211.6	95	692	26	> 1000	CC(=O)Nc1cnc(C(C)N2CCC[C@H](Cc3cc(C)nc(C)c3)C2)cn1 (stereo partly drawn) [Product 64]	–
–	91	490	4	> 1000	CC(=O)Nc1cncc(CN2CCC[C@H](Cc3cc(C)nc(C)c3)C2)c1 [Product 34]	–
–	101	11.5	72	407	CNC(=O)c1cncc(C(C)N2CCC[C@H](Cc3cc(C)nc(C)c3)C2)c1 (mixture of isomers) [Product 40]	–
147.5	–	–	–	–	CC(=O)Nc1cc(C(C)N2CCC[C@H](Cc3cc(C)nc(C)c3)C2)cnc1C (mixture of isomers) (as salt: HCl) [Product 33]	–
–	102	18.6	83	200	COc1cc(C[C@H]2CCCN(C(C)c3cc(NC(C)=O)[nH]n3)C2)cc(C)n1 (stereo partly drawn) [Product 66]	–
–	102	2.57	84	47.9	CC(=O)Nc1cc(C(C)N2CCC[C@H](Cc3cc(C)nc(C)c3)C2)n[nH]1 (stereo in doubt) [Product 3]	–
161.4	–	–	–	–	COc1cncc(C(C)N2CCC[C@H](Cc3cc(C)nc(C)c3)C2)c1 (mixture of isomers) (as salt: HCl) [Product 43]	–
